{"source": "paper PMC5049701", "about": "(Nature chemical biology, 2016)", "molecular_target": "T1, FsqB (Aspergillus fumigatus, UniProt Q4WD43)", "T1 sequence (Q4WD43 1-497)": "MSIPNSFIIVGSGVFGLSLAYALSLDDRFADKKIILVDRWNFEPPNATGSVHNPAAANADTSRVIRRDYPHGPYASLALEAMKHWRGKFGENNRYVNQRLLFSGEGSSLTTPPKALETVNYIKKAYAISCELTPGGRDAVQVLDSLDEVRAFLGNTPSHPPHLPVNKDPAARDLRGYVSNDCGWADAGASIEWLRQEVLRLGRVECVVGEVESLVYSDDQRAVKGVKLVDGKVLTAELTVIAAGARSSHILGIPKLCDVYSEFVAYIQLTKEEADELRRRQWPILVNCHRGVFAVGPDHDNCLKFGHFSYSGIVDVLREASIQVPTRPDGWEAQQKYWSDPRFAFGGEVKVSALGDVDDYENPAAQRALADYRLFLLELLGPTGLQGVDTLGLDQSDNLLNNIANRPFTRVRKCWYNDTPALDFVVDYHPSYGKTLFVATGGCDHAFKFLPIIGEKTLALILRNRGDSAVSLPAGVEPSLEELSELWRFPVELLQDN", "assay": "tryptic digest UHPLC-MS/MS", "format": "binding", "conditions": "covalent, bound to cysteine-414", "data": [{"smiles": "Cc1cc2nc3c(=O)[nH]c(=O)nc-3n(C[C@H](O)[C@H](O)[C@H](O)COP(=O)(O)OP(=O)(O)OC[C@H]3O[C@@H](n4cnc5c(N)ncnc54)[C@H](O)[C@@H]3O)c2cc1C", "note": "[FAD]", "values": [{"measurement": "tryptic digest UHPLC-MS/MS; flavin fluorescence", "value": "presence of FAD, which was found to be covalently bound to cysteine-414"}]}]}
